The values below are quoted from earlier work in patent publication US9468638B2, “Itraconazole formulations” (Texas Southern University, priority 2010, dated 2016).

The conditions of series [1]: pH=8.1.
Experiment in series [2]: not given
This is another data set of the same source.

For series [3] the following is noted: human, in vivo, iv.
The conditions of series [4]: rat, in vivo.
For series [5] the following is noted: in vivo, iv.

Values after ≈ are worked out from the molar mass of the structure shown. Where two headings read alike, the source gives them in different places.

Consider `CCC(C)n1ncn(-c2ccc(N3CCN(c4ccc(OCC5COC(Cn6cncn6)(c6ccc(Cl)cc6Cl)O5)cc4)CC3)cc2)c1=O` (centres unmarked) [Itraconazole], for which the “n-octanol/water partition coefficient log Po/w” value in series [1] was 5.66. For the same molecule, the water solubility result reads like this: (neutral pH) “about 1 ng/mL”; (pH=1) “approximately 4 mcg/mL”. In addition, the “solubility in PEG 400” value in series [2] (PEG 400) is 2140 µg/mL (≈ 3030 µM). The “solubility in Tween 20” value in series [2] (Tween 20) was 1190 µg/mL (≈ 1690 µM).

As for hydroxylpropyl-β-cyclodextrin, the “reduced clearance of hydroxylpropyl-β-cyclodextrin” value in series [3] is 6 fold. In series [4], the carcinogenicity finding result is listed as “produced pancreatic adenocarcinomas”. Moreover, the “toxicity that led to discontinuation of Sporanox I.V. Injection” value in series [5] is given as “renal toxicity”.
